Values of other authors as cited in patent US10183097B2, “Engineered cardiac derived compositions and methods of use” (THE JOHNS HOPKINS UNIVERSITY, priority 2013, dated 2019).

Test system: NRVM
Settings: inventors' previous NRVM study with myofibroblasts; agent added separately

Structure (SMILES)	electrophysiological suppression of conduction	severity of arrhythmia
Cc1ccc2c(c1)C(=O)C1(O)CCN(c3ccccc3)C1=N2 (stereo not drawn) [blebbistatin]	relieved the electrophysiological suppression of conduction	reduced the severity of arrhythmia
[Gd] [gadolinium]	relieved the electrophysiological suppression of conduction	reduced the severity of arrhythmia
[H]/N=C(/N)N[C@H]1[C@H](O)[C@@H](O)[C@H](O[C@@H]2O[C@@H](C)[C@](O)(C=O)[C@H]2O[C@@H]2O[C@@H](CO)[C@H](O)[C@@H](O)[C@@H]2NC)[C@@H](N/C(N)=N\[H])[C@@H]1O [streptomycin]	relieved the electrophysiological suppression of conduction	reduced the severity of arrhythmia
